{
  "source": "patent US9591855B2",
  "about": "“Diindol-3-ylmethanes as potent non-toxic antifouling compounds” (Hong Kong University of Science and Technology, priority 2014, dated 2017)",
  "key": {"[1]": {"tested_on": "cyprids of Amphibalanus amphitrite", "test": "Recovery (reversibility) bioassay on cyprids", "assay_type": "in vivo", "method": "Cyprids were firstly exposed to the concentrations of DIM (1) (25.39 μM) and DIM-Ph-4-OH (8) (73.93 μM) that inhibited 100% of cyprid settlement of Amphibalanus amphitrite. After 24 hr of exposure, the cyprids were transferred to fresh seawater (FSW) and kept in incubator for 48 hr. In the control group, cyprids were kept in FSW without biocides during the course of the experiment. Values presented here were mean±SD (n=3) of the settled and unsettled (swimming) living larvae.\nReversibility tests—Cyprids were exposed and in the laboratory, recovery bioassay was designed and conducted to determine whether antifouling compounds 3,3′-diindolylmethane (DIM) and 4-hydroxyphenyl-3,3′-diindolylmethane (DIM-Ph-4-OH) had any detrimental effect on larvae. […]"}, "[2]": {"tested_on": "Balanus amphitrite cypris larvae", "settings": "for antifouling activity in comparison with the butenolide: compared with butenolide; for EC50: read-out: EC50 (concentration in which 50% of larval population was inhibited to settle), 28° C., mean ± SD (n = 3); for EC50 / LC50: Balanus amphitrite cypris larvae, 48 h; for LC50: read-out: LC50 (concentration in which 50% of the test larvae population was killed); for antifouling activity against B. amphitrite larval settlement (in words): in vivo", "procedure": "(§3) Newly transformed cyprids were collected for the experiment.\n(§4) The experiment for evaluating inhibitory effect of the related compounds on B. amphitrite and B. neritina larvae was conducted in 24-well polystyrene plates (Nunc, Naperville, Ill., Calif., USA). A stock solution of 50 mg ml^−1 of each compound was prepared in DMSO, diluted 1000 times with fresh seawater (FSW) to 50 μg ml^−1, and further diluted by a serial 2-fold dilution to obtain test solutions of seven concentrations ranging from 25 to 0.39 μg mL^−1. Sixteen to twenty larvae were then added to each well with one milliliter of the test solution. There were three replicate wells per solution. […] The 24-well plates were maintained in the dark for 48 h at 28° C. The number of settled larvae (attached and metamorphosed), swimming and dead larvae were counted under a dissecting microscope at 48 hr. The number of the settled larvae was expressed as a percentage of the total number of larvae per well. The mortality rate was determined as the percentage of the dead or missing larvae over the total number of larvae. Each bioassay experiment had three biological replicates and was repeated three times using three different batches of larvae.\n(§5) The data were analyzed by one-way analysis of variance (ANOVA) to detect significant differences in larval settlement with regard to the concentration used (p<0.05).\n(§6) In the anti-larval settlement assay, the EC50 for percentage of attachment and LC50 for larval mortality were calculated by using the software Probit. Differences in all tests between treatments and controls were determined by one-way ANOVA followed by Tukey's test."}, "[3]": {"tested_on": "marine fouling organisms (biofoulers)", "test": "Field test of painted PVC panels at Sai Kung Pier", "assay_type": "in vivo", "from_the_text": "Photographs show the surface condition of tested panels after submersion in sea water for 5 months. (A) Test panel No. 1, negative control panel coated with the basal paint; […] Asterisks above the bars indicate significant differences from the negative control in Tukey's test (p<0.05, One-way ANOVA). […] (2006) and Xu et al. (2010) with minor modifications. Briefly, the plates were coated with the mixed paints containing the basal ingredients as follows: 0.4, 0.8 and 1.2 g of DIM or Sea-Nine 211TM, 2.5 g of polyacrylic resin, 1.0 g of gum resin, 1.0 g of calcium carbonate, 2.0 g of titanium oxide, 0.2 g of bentonite, and 10.0 ml of xylene. After stirring the paint for 4-5 hr, it was immediately painted onto the sandblasted PVC panels. The painted plates were allowed to dry in dark. […] Calculation of Area Covered by Biofoulers-The condition of the painted surface of each panel was monitored and photographed weekly over a period of 5 months. All the images were analyzed with the ImageJ program (available as a public domain Java image processing software provided by NIH Image). […] Subsequently, the total area covered by biofoulers was calculated and was then divided by the total area of the panel surface to give rise to the percent coverage of biofoulers on each panel."}, "in vivo": {"test": "in vivo", "settings": "Balanus (=Amphibalanus) amphitrite (barnacle, cypris larvae)", "procedure": "as §3, §4, §5, §6"}, "[4]": {"test": "Preliminary hydrolysis experiment in natural seawater", "assay_type": "physicochemical", "settings": "after 4 d incubation"}, "[5]": {"test": "Larval settlement bioassay, bryozoan larvae", "assay_type": "in vivo, Bugula neritina", "method": "(§1) Adult colonies of B. neritina were collected from the floating rafts at a fish farm in Yung SHU O, Hong Kong (22° 24′ N., 114° 21′ E.) and maintained in flow-through sweater for <7 days before use. The larvae were released under certain conditions described in Maki et al. (1989). Under the inducement of a bright artificial light for 20-30 minutes, the adult B. neritina placed in glass tank filled with 0.45 μm filtered seawater released their larvae, which were quickly able to attach and metamorphose. A good number of actively swimming larvae were obtained and immediately used for the anti-larval bioassay.\n(§2) There were three replicate wells per solution."}, "Bugula neritina larvae [6]": {"tested_on": "Bugula neritina larvae", "test": "Larval settlement bioassay, bryozoan larvae", "assay_type": "in vivo", "settings": "Bugula neritina, 48 h, read-out: EC50 (concentration in which 50% of larval population was prevented from settling)", "method": "as §1, §2"}, "primary mouse neurons": {"tested_on": "primary mouse neurons", "test": "Cytotoxicity to primary mouse neurons", "assay_type": "cell-based"}, "[7]": {"tested_on": "Balanus amphitrite cypris larvae", "settings": "positive control concentration, Li et al., 2013; cited from earlier work"}, "Bugula neritina larvae [8]": {"tested_on": "Bugula neritina larvae", "settings": "positive control concentration, Li et al., 2013; cited from earlier work"}, "[9]": {"settings": "other: immersion of larvae in test solution in seawater"}, "[10]": {"settings": "Bugula neritina (bryozoan, in vivo, other: immersion of larvae in test solution in seawater), Bugula neritina larvae, 48 h, read-out: LC50 (concentration in which 50% of the test larvae population was killed)"}},
  "note": "Where two headings read alike, the source gives them in different places.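 Wherever antifouling activity against B. amphitrite larval settlement (in words) is given: larvae held in 24-well plates with compound in seawater, dark, 48 h, settled larvae (attached plus metamorphosed) and dead or missing larvae counted microscopically as percent of total per well.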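 Wherever antifouling activity in comparison with the butenolide is given: larvae held in 24-well plates with compound in seawater, dark, 48 h, settled larvae (attached plus metamorphosed) and dead or missing larvae counted microscopically as percent of total per well.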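 Wherever inhibition of cyprid settlement is given: larvae held in 24-well plates with compound in seawater, dark, 48 h, settled larvae (attached plus metamorphosed) and dead or missing larvae counted microscopically as percent of total per well.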",
  "data": [
    {"compound": "c1ccc2c(Cc3c[nH]c4ccccc34)c[nH]c2c1", "note": "[Compound 1, di(1H-indol-3-yl)methane]", "values": [
      {"measurement": "treated cyprids that retained their ability of normal attachment and metamorphosis", "setting": "[1]; 24 hr exposure at 25.39 μM (50 μg mL^−1), then 48 hr in FSW", "value": 93, "unit": "%"},
      {"measurement": "inhibition of cyprid settlement", "setting": "[2]; 25.39 μM", "value": 100, "unit": "%"},
      {"measurement": "antifouling activity in comparison with the butenolide", "setting": "[2]", "value": "comparable antifouling activity"},
      {"measurement": "EC50", "setting": "[2]", "value": "3.27 ± 0.53", "unit": "µM"},
      {"measurement": "biofouling on surface of treated PVC panels", "setting": "[3]; 10% and 15% (w/w) in paint, submerged in seawater 5 months", "value": "few marine organisms observed"},
      {"measurement": "period over which settlement of marine fouling organisms was deterred in field test", "setting": "[3]; field test", "value": "≥ 3", "unit": "months"},
      {"measurement": "LC50 at 48 h", "setting": "in vivo", "value": "> 203", "unit": "µM"},
      {"measurement": "degradation in natural seawater", "setting": "[4]", "value": "~90", "unit": "%"},
      {"measurement": "LC50 at 48 h", "setting": "[5]; Bugula neritina (bryozoan, larvae), in vivo", "value": "> 203", "unit": "µM"},
      {"measurement": "EC50", "setting": "Bugula neritina larvae [6]", "value": 2.54, "unit": "µM"},
      {"measurement": "cytotoxicity to primary mouse neurons", "setting": "primary mouse neurons", "value": "non-cytotoxic"}
    ]},
    {"compound": "CC(c1c[nH]c2ccccc12)c1c[nH]c2ccccc12", "note": "[Compound 2, vibrindole A]", "values": [
      {"measurement": "EC50", "setting": "[2]", "value": "5.42 ± 0.19", "unit": "µM"},
      {"measurement": "LC50", "setting": "[2]", "value": "> 192", "unit": "µM"}
    ]},
    {"compound": "OCC(O)C(c1c[nH]c2ccccc12)c1c[nH]c2ccccc12", "note": "(stereo not shown) [Compound 3, 3,3′-di-1H-indol-3-yl-1,2-propandiol]", "values": [
      {"measurement": "antifouling activity against B. amphitrite larval settlement (in words)", "setting": "[2]", "value": "least active compound"},
      {"measurement": "EC50", "setting": "[2]", "value": "18.6 ± 0.79", "unit": "µM"},
      {"measurement": "LC50", "setting": "[2]", "value": "> 327", "unit": "µM"}
    ]},
    {"compound": "c1ccc2c(C(c3c[nH]c4ccccc34)c3c[nH]c4ccccc34)c[nH]c2c1", "note": "[Compound 4, tri(1H-indol-3-yl)methane]", "values": [
      {"measurement": "EC50", "setting": "[2]", "value": "5.81 ± 0.53", "unit": "µM"},
      {"measurement": "LC50 at 48 h", "setting": "in vivo; [9]", "value": "> 138", "unit": "µM"}
    ]},
    {"compound": "O=C(c1c[nH]c2ccccc12)C(c1c[nH]c2ccccc12)c1c[nH]c2ccccc12", "note": "[Compound 5, 1,2,2-tri(1H-indol-3-yl) ethanone]", "values": [
      {"measurement": "EC50", "setting": "[2]", "value": "4.19 ± 0.15", "unit": "µM"},
      {"measurement": "LC50 at 48 h", "setting": "in vivo; [9]", "value": "> 128", "unit": "µM"}
    ]},
    {"compound": "c1ccc(C(c2c[nH]c3ccccc23)c2c[nH]c3ccccc23)cc1", "note": "[Compound 7, 3,3′-(phenylmethylene) bis-1H-indole]", "values": [
      {"measurement": "antifouling activity in comparison with the butenolide", "setting": "[2]", "value": "comparable antifouling activity"},
      {"measurement": "antifouling activity against B. amphitrite larval settlement (in words)", "setting": "[2]", "value": "weaker anti-larval settlement activity than DIM-Ph-4-OH (8)"},
      {"measurement": "EC50", "setting": "[2]", "value": "3.57 ± 0.12", "unit": "µM"},
      {"measurement": "LC50 at 48 h", "setting": "in vivo; [9]", "value": "> 155", "unit": "µM"}
    ]},
    {"compound": "Oc1ccc(C(c2c[nH]c3ccccc23)c2c[nH]c3ccccc23)cc1", "note": "[Compound 8, 4-(di(1H-indol-3-yl)methyl) phenol]", "values": [
      {"measurement": "treated cyprids that retained their ability of normal attachment and metamorphosis", "setting": "[1]; Amphibalanus amphitrite, in vivo, 73.93 μM", "value": 95, "unit": "%"},
      {"measurement": "inhibition of cyprid settlement", "setting": "[2]; 73.93 μM", "value": 100, "unit": "%"},
      {"measurement": "antifouling activity in comparison with the butenolide", "setting": "[2]", "value": "comparable antifouling activity"},
      {"measurement": "antifouling activity against B. amphitrite larval settlement (in words)", "setting": "[2]", "value": "best antifoulant"},
      {"measurement": "EC50", "setting": "[2]", "value": "1.86 ± 0.24", "unit": "µM"},
      {"measurement": "LC50 at 48 h", "setting": "in vivo; [9]", "value": "> 148", "unit": "µM"},
      {"measurement": "LC50 at 48 h", "setting": "[5]; [10]", "value": "> 148", "unit": "µM"},
      {"measurement": "EC50", "setting": "Bugula neritina larvae [6]", "value": 1.25, "unit": "µM"},
      {"measurement": "cytotoxicity to primary mouse neurons", "setting": "primary mouse neurons", "value": "non-cytotoxic"}
    ]},
    {"compound": "CC(=O)Oc1ccc(C(c2c[nH]c3ccccc23)c2c[nH]c3ccccc23)cc1", "note": "[Compound 9, 4-[di(1H-indol-3-yl)methyl]phenyl acetate]", "values": [
      {"measurement": "antifouling activity against B. amphitrite larval settlement (in words)", "setting": "[2]", "value": "not as high as that of DIM-Ph-4-OH (8)"},
      {"measurement": "EC50", "setting": "[2]", "value": "4.34 ± 0.32", "unit": "µM"},
      {"measurement": "LC50 at 48 h", "setting": "in vivo; [9]", "value": "> 132", "unit": "µM"},
      {"measurement": "LC50 at 48 h", "setting": "[5]; [10]", "value": "> 132", "unit": "µM"},
      {"measurement": "EC50", "setting": "Bugula neritina larvae [6]", "value": "4.5 ± 0.42", "unit": "µM"}
    ]},
    {"compound": "c1ccc2[nH]ccc2c1", "note": "[Indole, indole, reference compound]", "values": [
      {"measurement": "antifouling activity against B. amphitrite larval settlement (in words)", "setting": "[2]", "value": "weak antifouling activity"},
      {"measurement": "EC50", "setting": "[2]", "value": "17.5 ± 0.6", "unit": "µM"},
      {"measurement": "EC50", "setting": "[2]; listed as indole", "value": 17.5, "unit": "µM"},
      {"measurement": "LC50 at 48 h", "setting": "in vivo", "value": 85.4, "unit": "µM"}
    ]},
    {"compound": "CCCCCCCCn1sc(Cl)c(Cl)c1=O", "note": "[Sea-Nine 211™, 4,5-dichloro-2-N-octyl-3(2H)-isothiazolone]", "values": [
      {"measurement": "EC50 value for B. amphitrite", "setting": "[7]", "value": 1.90, "unit": "µg/mL"},
      {"measurement": "EC50 value for B. neritina", "setting": "Bugula neritina larvae [8]", "value": 2.50, "unit": "µg/mL"},
      {"measurement": "degradation in natural seawater", "setting": "[4]", "value": "no obvious degradation"}
    ]},
    {"compound": "arsindoline A [Compound 6]", "values": [
      {"measurement": "EC50", "setting": "[2]", "value": "4.64 ± 0.59", "unit": "µM"}
    ]}
  ]
}
